The melting point is the temperature, or range, at which the solid turns liquid. In turn, `O=C(O)C(NC(=O)C(F)(F)F)c1ccccc1` (configuration not stated) gave a melting point of 155 to 157 °C. `CN1CCn2nc(Nc3cc(Cl)nn(C)c3=O)cc2C1`: the melting point lay in the range of 175 to 176 °C.

Molecule `COc1ccc2cccc3c2c1CCC3CNC(=O)C1CC1` (configuration not stated) registered a melting point of 119 °C. `CCOc1cccc(S(=O)(=O)c2ccc(C)nc2Nc2c(C)cc(C)cc2C)c1` displayed a melting point of 96 to 97 °C.

Regarding `O=C(O)c1ccc(-c2cc(=O)n(-c3ccccc3)s2)cc1`, the melting point was in the range of 260 to 261 °C. Next, `CC(=O)Nc1ccc2ccccc2c1-c1c(P(=O)(c2ccccc2)c2ccccc2)ccc2ccccc12`: 95.4 °C; `CC(C)[C@H](NC(=O)OCc1ccccn1)C(=O)N[C@@H](Cc1ccccc1)C[C@H](O)[C@H](Cc1ccccc1)NC(=O)OCc1cccnc1`: 172 to 174 °C; `Fc1ccc(Cn2c(NC3CCNCC3)nc3ccccc32)cc1`: 216 °C. With `CCOCOc1cc(C)ccc1-c1cc(-c2cccc([N+](=O)[O-])c2)c(C#N)c(N)n1` the figure was 148 to 149 °C; with `O=C(O)c1cccc(NC(=O)C(CS)Cc2ccccc2)c1` (configuration not stated), 178 to 180 °C. `COCCOc1ccc(CCCNS(=O)(=O)c2cccc(Cl)c2)c(Oc2ncc(C(F)(F)F)cc2Cl)c1`: the melting point fell in the range of 110 to 114 °C. With `O=C(O)Cc1ccc(Oc2ccc(Cl)cc2)cc1` the figure was 98 to 100 °C; with `CC(O)c1cncc(C2(O)CCN(CC34CC(c5ccccc53)c3ccccc34)CC2)c1` (configuration not stated), 177 to 183 °C; with `O=c1c(CO)cc(-c2ccc3c(c2)CCO3)nn1CC1CC1`, 115 to 117 °C. `CC(=O)Nc1ccc(SCC(OS(C)(=O)=O)C(C)(C)C)cc1` (configuration not stated) displayed a melting point of 123 to 124 °C. As to `Cc1ccc(Oc2ccc(C=O)cc2)c(O)c1`, the melting point fell in the range of 46 to 48 °C. `Cn1nc(N)nc1NCCCCOc1cccc(CN2CCCCC2)c1` had a melting point of 82 to 82.5 °C. As to `CCCn1nc2c(N)nc3ccccc3c2c1CCCc1cc(-c2ccccc2)on1`, the melting point is 172 to 173 °C.

The molecule `O=C(O)c1nn(-c2ccc(Cl)cc2Cl)c2c1CCc1sc(Br)cc1-2` gave a melting point of 235 to 237 °C. For the molecule `c1ccc(-n2c3ccccc3c3ccccc32)cc1`, the melting point was 96 to 97 °C. `CCOCc1nc2c(N)nc3c(c2n1CCCCS(N)(=O)=O)CCCC3` yielded a melting point of 224 to 227 °C.

`COc1c(Cl)ccc(-c2cc(N)c(Cl)c(C(=O)NOCc3ccc(F)cc3)n2)c1F` returned a melting point of 150 to 153 °C. As for `CCOC(=O)c1cn2c(cc(Br)c3ccccc32)n1`, the melting point lay in the range of 205 to 207 °C.

In turn, `O=c1n(C2CCCCC2)c2cc(Cl)ccc2n1S(=O)(=O)c1ccc([N+](=O)[O-])cc1` returned a melting point of 162 °C.

For `CCOC(=O)c1cnc2nn(CC)cc2c1OCC`, the melting point fell in the range of 111 to 113 °C. For `COc1cccc(-c2nc3n(n2)Cc2cc(Cl)ccc2-3)c1`, the melting point was 229 to 230 °C. Next, `CCSc1cc(C)nc(SCC)c1NC(=O)CCCCCCCCSc1nc2ccccc2o1`: 84 to 87 °C; `CCN1C(=O)C(C)(C)C(=O)N(C)c2cc(CN(CCn3ccc4oc(C)cc4c3=O)Cc3n[nH]c4c(C)cccc34)ccc21`: 111 to 118 °C; `N=C(N)N(CCCCc1ccc(OCC(=O)Nc2ccccc2)cc1)C(=O)c1nc(Cl)c(N)nc1N`: 168 to 170 °C.

`O=C1C(c2ccccc2)N(c2ccc(Oc3ccccc3)cc2)C(=S)N1c1ccccc1` (configuration not stated) registered a melting point of 100 °C. With `CC(C)(C)C(=O)C(O)C(OS(=O)(=O)C(F)(F)F)C1OC(O)(C(=O)C(C)(C)C)C(O)(C(=O)C(C)(C)C)C1(O)C(=O)C(C)(C)C` (configuration not stated) the figure was 109 to 112 °C; with `CCCCc1nc2c(N)nc3ccccc3c2n1CCOCc1ccccc1`, 133 to 135 °C; with `O=C(C=Cc1ccc(Cl)cc1)C(Cc1ccccc1)c1ccccc1` (configuration not stated), 113 to 115 °C. Molecule `CC(C)(C)OC(=O)NN1CCN([Si](C)(C)C)C1=O` had a melting point of 132 °C. With `CCOC(=O)c1[nH]c2cc(Cl)cc(Cl)c2c1NCC(=O)c1ccccc1` the figure was 143 to 144 °C; with `Cc1ccc2c(c1)c1c(n2C(=O)c2ccc(F)cc2)CCC(C(=O)O)C1` (configuration not stated), 230 to 233 °C; with `CN1C(=O)CC[C@]2(C)c3ccc(-c4ccc5ncccc5c4)cc3CC[C@@H]12`, 185 to 190 °C. Next, `CC(=O)O[C@H]1CC[C@H](c2ccc(I)cc2)CC1`: 84.4 to 85.4 °C. With `CCOC(=O)c1ncn2c1CN(C)C(=O)c1cc(C#N)ccc1-2` the figure was 184 °C; with `O=C(Nc1c(Br)cc(Br)cc1C(=O)NCC1CCCCC1)N[C@@H](Cc1ccc(NC(=O)c2c(Cl)cccc2Cl)cc1)C(=O)O`, 193 °C; with `CC(C)(C)OC(=O)N1CCN(C(=O)OCc2ccccc2)CC1`, 90.5 to 91.5 °C. Molecule `CS(=O)(=O)c1ccc(-c2oc(C3CCCCC3)nc2-c2ccc(F)cc2)cc1` had a melting point of 127 to 128 °C.

With `CC(C)(C)OC(=O)N1CCC(C#N)(CCl)CC1`, the melting point fell in the range of 114 to 116 °C.

Turning to `O=C(NCCc1ccc(O)c(O)c1)C12CC3CC(CC(C3)C1)C2`, the melting point lay in the range of 198 to 200 °C. `Nc1ncnc2ncn([C@H]3C=C[C@@H](O)C3)c12` (racemic) yielded a melting point of 195 to 197 °C. Next, `FC(F)(F)c1ccc2nc3c(nc2c1)OCC1CCCCN31` (configuration not stated): 154 to 156 °C. Next, `CCCS(=O)c1ccc(N)c([N+](=O)[O-])c1` (configuration not stated): 109 to 112 °C. `Cn1c(CCCOc2ccc(CC3SC(=O)NC3=O)cc2)nc2cccnc21` (configuration not stated) showed a melting point of 185 to 186 °C. With `CC(=O)O[C@@H]1C=C2C=C3C(=C(C)C(=O)N3C)C[C@]2(C)[C@@H](C)[C@H]1O` the figure was 50 to 55 °C. With `COCCNc1nccc(Oc2ccc(NC(=O)c3cc(F)cc(N4CCOCC4)c3)c3ccccc23)n1` the figure was 95 to 97 °C; with `O=c1c(-c2ccccn2)c(O)c2cccnc2n1-c1ccccc1`, 332 to 333 °C; with `COC(=O)c1cccc(CN2C(=O)C(CCOc3ccc(CCNC(=O)OC(C)(C)C)cc3)Oc3ccccc32)c1` (configuration not stated), 112 to 113 °C. Consider `Cc1cccc(C)c1C(c1cccc2ccccc12)C(C#N)C(=O)OC(C)(C)C` (configuration not stated), for which the melting point is 124 to 128 °C. Take `CCC(C)(CC)c1cc(NC(=O)c2c(OC)cccc2OC)sn1`: the melting point was 243 to 244 °C. In the case of `COCCOC(=O)NC(=O)CCl`, the melting point is 97 to 99 °C. Next, `O=C(O)C=C1SC(=Nc2ccc(Cl)c(Cl)c2)N(c2ccc(Cl)c(Cl)c2)C1=O`: 221 to 222 °C; `CC(=O)NCC1CN(c2ccc(N3CC4CCCN(C(=O)COC(C)=O)C4C3)c(F)c2)C(=O)O1` (configuration not stated): 113 to 116 °C; `COc1ccccc1N1CCN(CCCNC(=O)c2csc3c(=O)cc(C(F)(F)F)oc23)CC1`: 170 to 177 °C. The molecule `CC1(C)CC(S(=O)C(F)c2c(F)cccc2F)=NO1` (configuration not stated) returned a melting point of 87 °C. In turn, `Cn1c(=O)cc(CCN2CCC(c3c[nH]c4ccccc34)CC2)c2ccccc21` registered a melting point of 79 to 81 °C. With `N#Cc1ccc(Cc2nc[nH]n2)cc1` the figure was 151 to 153 °C; with `COC(=O)c1cccc(C(=O)Nc2ccc(-n3nc(C(F)(F)F)cc3C(F)(F)F)cc2)c1`, 174 to 175 °C; with `CCOC(=O)C(C#N)=Cc1c(Cl)n(Cc2ccccc2)c2ccccc12`, 130 to 131 °C. The molecule `CC(=O)N1CCC(COCc2cc(C(F)(F)F)cc(C(F)(F)F)c2)(c2ccccc2)CC1` gave a melting point of 64 to 65 °C. Next, `CCOC(=O)c1cc2n(c1)C(C)N(C(=O)OCC)c1ccccc1-2` (configuration not stated): 125 to 127 °C; `C=CCc1c(O)c(C)cc2c1C(C)(C)CC1(CC(C)(C)c3c(cc(C)c(O)c3CC=C)O1)O2`: 95 to 97 °C. As for `CNC(=O)c1ccc(C2=N[C@H]3CCCC[C@H]3c3cc(OC)c(OC)cc32)cc1` (racemic), the melting point was in the range of 209 to 211 °C. Next, `CCOC(=O)c1cn(CC)nc1O`: 109 to 110 °C; `O[C@@H]1CCN(c2ccc3nnn(Cc4ccc5ncccc5c4)c3n2)C1`: 167 to 169 °C. `Cc1c(Cl)ccc2c3cccc(C(=O)O)c3n(C)c12` yielded a melting point of 237 °C. With `COc1c(O)cc(O)c2c(=O)cc(-c3ccccc3)oc12` the figure was 202 to 203 °C. Molecule `CN(CC(=O)c1cccn1Cc1ccc(Cl)cc1[N+](=O)[O-])Cc1ccccc1` returned a melting point of 90 to 93 °C. Next, `CCCCCC(=O)C=Cc1ccc(CCCCCCCCCC(=O)OC)s1`: 45 to 47 °C; `N#CCc1nc(C(=O)c2ccccc2)no1`: 96.5 to 97.5 °C; `CNC(=S)Nc1ccc(C2=NNC(=O)CC2C)cc1` (configuration not stated): 213 °C. Take `CCCCCCCC(=O)SSC(=O)CCCCCCC`: the melting point was in the range of 36 to 38 °C. With `COC(=O)C1=C(C(OC)OC)NC(C)=C(C(=O)OCC(C)(C)C)C1c1ccccc1C#N` (configuration not stated) the figure was 130 to 131 °C; with `OCC1=CCc2cc3ccccc3cc21`, 115 to 116 °C. As for `Cc1c(Cc2ccccc2)c(=O)n(Cc2ccccc2)c2cc(OCC(=O)NO)cc(OCC(=O)NO)c12`, the melting point fell in the range of 121 to 127 °C. For the molecule `COc1cc(COc2nn(-c3ccccc3)cc2/C=C/C(C)=O)ccc1OCc1nc(-c2ccco2)oc1C`, the melting point lay within 177 to 178 °C. Next, `Cc1nc2c(N)nc3ccccc3c2n1CCCCCNC(=O)c1ccccc1`: 110 to 120 °C. With `Cc1cccc(C)c1NCCNCC(O)COc1ccc(F)cc1` (configuration not stated) the figure was 105 to 106 °C; with `Cc1noc2ccc(Oc3ncccc3C(=O)NCc3ccc(C(C)(C)O)cc3)cc12`, 128 to 130 °C; with `NCC(O)CNC(=O)CCCCCCCCCCCO` (configuration not stated), 119 °C.

For the molecule `Cc1noc2ccc(Oc3ncccc3C(=O)NCC3CCC(C(C)(C)O)CC3)cc12` (configuration not stated), the melting point is 135 to 137 °C. Turning to `CCOC(=O)Cc1c(C(F)(F)F)nc(C)[nH]c1=O`, the melting point fell in the range of 108 to 110 °C. Take `CCC(=O)N[C@@H](C)C(=O)N1CCC[C@H]1C(=O)NC`: the melting point was 163 to 165 °C.

These data come from a melting point compilation (Tetko et al.; mined from patent text by program, amines drawn as free bases though some values may be those of a salt).
